# Test results taken from ChEMBL document CHEMBL3046287, “Azoxystrobin resistance of French Mycosphaerella graminicola strains assessed by four in vitro bioassays and by screening of G143A substitution” (Crop Prot, 2010).
# Columns and labels:
# Type in all cases: functional, organism-based
# [1] = system: Zymoseptoria tritici; assay: Antifungal activity against azoxystrobin-resistant Zymoseptoria tritici T055 carrying cytochrome-b A143 allele assessed as inhibition of spore germination after 2 days at 18 degC by spotting on PDA medium assay; conditions: T055, 48 h
# [2] = system: Zymoseptoria tritici; assay: Antifungal activity against azoxystrobin-resistant Zymoseptoria tritici T0251 carrying cytochrome-b A143 allele assessed as fungal growth inhibition after 6 days at 20 degC by microplate without alamar blue assay; conditions: T0251, 144 h
# [3] = system: Zymoseptoria tritici; assay: Antifungal activity against azoxystrobin-sensitive Zymoseptoria tritici T0209 carrying cytochrome-b G143 allele assessed as fungal colony perpendicular diameter changes after 10 days at 18 degC by spotting on PDA medium assay; conditions: T0209, 240 h
# [4] = system: Zymoseptoria tritici; assay: Antifungal activity against azoxystrobin-resistant Zymoseptoria tritici T0262 carrying cytochrome-b A143 allele assessed as inhibition of spore germination after 2 days at 18 degC by spotting on PDA medium assay; conditions: T0262, 48 h
# [5] = system: Zymoseptoria tritici; assay: Antifungal activity against azoxystrobin-sensitive Zymoseptoria tritici T0148 carrying cytochrome-b G143 allele assessed as fungal growth inhibition after 6 days at 20 degC by microplate without alamar blue assay; conditions: T0148, 144 h
# [6] = system: Zymoseptoria tritici; assay: Antifungal activity against azoxystrobin-sensitive Zymoseptoria tritici T0466 carrying cytochrome-b G143 allele assessed as inhibition of spore germination after 2 days at 18 degC by spotting on PDA medium assay; conditions: T0466, 48 h
# [7] = system: Zymoseptoria tritici; assay: Antifungal activity against azoxystrobin-resistant Zymoseptoria tritici T0345 carrying cytochrome-b A143 allele assessed as fungal colony perpendicular diameter changes after 10 days at 18 degC by spotting on PDA medium assay; conditions: T0345, 240 h
# [8] = system: Zymoseptoria tritici; assay: Antifungal activity against azoxystrobin-resistant Zymoseptoria tritici T0451 carrying cytochrome-b A143 allele assessed as fungal growth inhibition after 6 days at 20 degC by microplate without alamar blue assay; conditions: T0451, 144 h
# [9] = system: Zymoseptoria tritici; assay: Antifungal activity against azoxystrobin-sensitive Zymoseptoria tritici T0466 carrying cytochrome-b G143 allele assessed as fungal colony perpendicular diameter changes after 10 days at 18 degC by spotting on PDA medium assay; conditions: T0466, 240 h
# [10] = system: Zymoseptoria tritici; assay: Antifungal activity against azoxystrobin-sensitive Zymoseptoria tritici T0403 carrying cytochrome-b G143 allele assessed as inhibition of spore germination after 2 days at 18 degC by spotting on PDA medium assay; conditions: T0403, 48 h
# [11] = system: Zymoseptoria tritici; assay: Antifungal activity against azoxystrobin-sensitive Zymoseptoria tritici IPO94269 carrying cytochrome-b G143 allele assessed as fungal colony perpendicular diameter changes after 10 days at 18 degC by spotting on PDA medium assay; conditions: IPO94269, 240 h
# [12] = system: Zymoseptoria tritici; assay: Antifungal activity against azoxystrobin-sensitive Zymoseptoria tritici T0464 carrying cytochrome-b G143 allele assessed as fungal growth inhibition after 6 days at 20 degC by microplate without alamar blue assay; conditions: T0464, 144 h
# [13] = system: Zymoseptoria tritici; assay: Antifungal activity against azoxystrobin-resistant Zymoseptoria tritici T055 carrying cytochrome-b A143 allele assessed as fungal growth inhibition after 6 days at 20 degC by microplate without alamar blue assay; conditions: T055, 144 h
# [14] = system: Zymoseptoria tritici; assay: Antifungal activity against azoxystrobin-sensitive Zymoseptoria tritici T021 carrying cytochrome-b G143 allele assessed as inhibition of spore germination after 2 days at 18 degC by spotting on PDA medium assay; conditions: T021, 48 h
# [15] = system: Zymoseptoria tritici; assay: Antifungal activity against azoxystrobin-sensitive Zymoseptoria tritici T0403 carrying cytochrome-b G143 allele assessed as fungal growth inhibition after 6 days at 20 degC by microplate without alamar blue assay; conditions: T0403, 144 h
# [16] = system: Zymoseptoria tritici; assay: Antifungal activity against azoxystrobin-sensitive Zymoseptoria tritici T0209 carrying cytochrome-b G143 allele assessed as inhibition of spore germination after 2 days at 18 degC by spotting on PDA medium assay; conditions: T0209, 48 h
# [17] = system: Zymoseptoria tritici; assay: Antifungal activity against azoxystrobin-sensitive Zymoseptoria tritici T0384 carrying cytochrome-b G143 allele assessed as fungal growth inhibition after 6 days at 20 degC by microplate without alamar blue assay; conditions: T0384, 144 h
# [18] = system: Zymoseptoria tritici; assay: Antifungal activity against azoxystrobin-sensitive Zymoseptoria tritici T0214 carrying cytochrome-b G143 allele assessed as inhibition of spore germination after 2 days at 18 degC by spotting on PDA medium assay; conditions: T0214, 48 h
# [19] = system: Zymoseptoria tritici; assay: Antifungal activity against azoxystrobin-sensitive Zymoseptoria tritici IPO323 carrying cytochrome-b G143 allele assessed as fungal colony perpendicular diameter changes after 10 days at 18 degC by spotting on PDA medium assay; conditions: IPO323, 240 h
# [20] = system: Zymoseptoria tritici; assay: Antifungal activity against azoxystrobin-resistant Zymoseptoria tritici T0254 carrying cytochrome-b A143 allele assessed as fungal growth inhibition after 6 days at 20 degC by microplate without alamar blue assay; conditions: T0254, 144 h
# [21] = system: Zymoseptoria tritici; assay: Antifungal activity against azoxystrobin-resistant Zymoseptoria tritici T0293 carrying cytochrome-b A143 allele assessed as fungal growth inhibition after 6 days at 20 degC by microplate without alamar blue assay; conditions: T0293, 144 h
# [22] = system: Zymoseptoria tritici; assay: Antifungal activity against azoxystrobin-sensitive Zymoseptoria tritici T0470 carrying cytochrome-b G143 allele assessed as inhibition of spore germination after 2 days at 18 degC by spotting on PDA medium assay; conditions: T0470, 48 h
# [23] = system: Zymoseptoria tritici; assay: Antifungal activity against azoxystrobin-sensitive Zymoseptoria tritici T0365 carrying cytochrome-b G143 allele assessed as fungal growth inhibition after 6 days at 20 degC by microplate without alamar blue assay; conditions: T0365, 144 h
# [24] = system: Zymoseptoria tritici; assay: Antifungal activity against azoxystrobin-sensitive Zymoseptoria tritici T0148 carrying cytochrome-b G143 allele assessed as inhibition of spore germination after 2 days at 18 degC by spotting on PDA medium assay; conditions: T0148, 48 h
# [25] = system: Zymoseptoria tritici; assay: Antifungal activity against azoxystrobin-resistant Zymoseptoria tritici T0251 carrying cytochrome-b A143 allele assessed as inhibition of spore germination after 2 days at 18 degC by spotting on PDA medium assay; conditions: T0251, 48 h
# [26] = system: Zymoseptoria tritici; assay: Antifungal activity against azoxystrobin-resistant Zymoseptoria tritici T0254 carrying cytochrome-b A143 allele assessed as inhibition of spore germination after 2 days at 18 degC by spotting on PDA medium assay; conditions: T0254, 48 h
# [27] = system: Zymoseptoria tritici; assay: Antifungal activity against azoxystrobin-sensitive Zymoseptoria tritici T0403 carrying cytochrome-b G143 allele assessed as fungal colony perpendicular diameter changes after 10 days at 18 degC by spotting on PDA medium assay; conditions: T0403, 240 h
# [28] = system: Zymoseptoria tritici; assay: Antifungal activity against azoxystrobin-sensitive Zymoseptoria tritici T0384 carrying cytochrome-b G143 allele assessed as inhibition of spore germination after 2 days at 18 degC by spotting on PDA medium assay; conditions: T0384, 48 h
# [29] = system: Zymoseptoria tritici; assay: Antifungal activity against azoxystrobin-sensitive Zymoseptoria tritici T0466 carrying cytochrome-b G143 allele assessed as fungal growth inhibition after 6 days at 20 degC by microplate without alamar blue assay; conditions: T0466, 144 h
# [30] = system: Zymoseptoria tritici; assay: Antifungal activity against azoxystrobin-sensitive Zymoseptoria tritici IPO94269 carrying cytochrome-b G143 allele assessed as inhibition of spore germination after 2 days at 18 degC by spotting on PDA medium assay; conditions: IPO94269, 48 h
smiles,measurement,setting,value
CO/C=C(/C(=O)OC)c1ccccc1Oc1cc(Oc2ccccc2C#N)ncn1 [AZOXYSTROBIN],IC50,[1],15.6 µg/mL
same,IC50,[2],> 100 µg/mL
same,IC50,[3],0.14 µg/mL
same,IC50,[4],> 100 µg/mL
same,IC50,[5],0.21 µg/mL
same,IC50,[6],0.94 µg/mL
same,IC50,[7],> 100 µg/mL
same,IC50,[8],> 100 µg/mL
same,IC50,[9],0.11 µg/mL
same,IC50,[10],< 0.01 µg/mL
same,IC50,[11],0.1 µg/mL
same,IC50,[12],< 0.01 µg/mL
same,IC50,[13],> 100 µg/mL
same,IC50,[14],0.21 µg/mL
same,IC50,[15],9.9 µg/mL
same,IC50,[16],0.09 µg/mL
same,IC50,[17],0.06 µg/mL
same,IC50,[18],0.03 µg/mL
same,IC50,[19],0.03 µg/mL
same,IC50,[20],32.6 µg/mL
same,IC50,[21],> 100 µg/mL
same,IC50,[22],0.02 µg/mL
same,IC50,[23],0.16 µg/mL
same,IC50,[24],0.08 µg/mL
same,IC50,[25],34.1 µg/mL
same,IC50,[26],7.17 µg/mL
same,IC50,[27],0.12 µg/mL
same,IC50,[28],0.76 µg/mL
same,IC50,[29],< 0.01 µg/mL
same,IC50,[30],0.06 µg/mL
